From patent US20240287124A1, “PRODRUGS OF 4'-SUBSTITUTED NUCLEOSIDE REVERSE TRANSCRIPTASE INHIBITORS” (Merck Sharp & Dohme LLC, priority 2023, published 2024)
≈ marks a conversion by molar mass, not a printed value. Where two headings read alike, the source gives them in different places.

Tests used:
[1] = tested on: HIV-1 wild-type (R8) virus; assay: Viral KINetics in Green cells (VIKING) assay, HIV-1 replication in MT4-GFP reporter cells; format: cell-based
Description: Antiviral potency of the compounds was determined based on their ability to block HIV-1 replication in a GFP reporter cell line; this assay is referred to as Viral KINetics in Green cells or VIKING assay. HIV-1 replication was monitored using MT4-gag-GFP clone D3 (hereafter designate MT4-GFP) cells, which are MT4 cells modified to harbor a GFP reporter gene, the expression of which is dependent on the HIV-1 proteins tat and rev. (MT4 is a human T-cell line that is particularly sensitive to HIV-1 replication.) HIV-1 infection of MT4-GFP cells results in GFP expression approximately 24 h post-infection. MT4-GFP cells were maintained at 37° C./5% CO2/90% relative humidity in RPMI 1640 supplemented with 10% fetal bovine serum, 100 U/mL penicillin/streptomycin, and […] G418 to maintain the reporter gene. For infections, MT4-GFP cells were placed in the same medium lacking G418 and infected overnight with HIV-1 wild-type (R8) virus at an approximate multiplicity of infection of 0.01 in the same incubation conditions. Cells were then washed and resuspended in RPMI 1640 containing 10% normal human serum at 2×10^5 cells/mL. Compound plates were prepared by dispensing compounds dissolved in DMSO into wells of 384-well poly D lysine-coated plates (0.2 μl/well) using an ECHO acoustic dispenser. Each compound was tested in a 10-point serial 3-fold dilution (typical final concentrations: 4 μM-0.2 nM). Controls included no inhibitor (DMSO only) and a combination of three antiviral agents as a positive control (efavirenz, indinavir, and an integrase strand transfer inhibitor at final concentrations of 4 μM each). Infected cells were added (50 μL/well) to compound plates and were maintained at 37° C./5% CO2/90% relative humidity. Infected cells were quantified at two time points, approximately 48 h and 72 h post-infection, by counting the number of green cells in each well using an Acumen eX3 scanner. The increase in the number of green cells over ˜24 h period gives the reproductive ratio, R, which is calculated by dividing the number of green cells at 72 h over those at 48 h post-infection. The percent inhibition caused by a test compound is calculated using the following formula: […]
The dose-response curves of each test compound were plotted as % inhibition versus the compound concentration. IC50 values were determined by non-linear 4-parameter fitting of the dose-response curves.

[2] = Aqueous solubility in PBS, pH 7.4; format: physicochemical; details: for solubility at 24 h: phosphate buffered saline, pH 7.4, aqueous buffer, thermodynamic from solid, read-out: Aqu. Solubility
Description: Aqueous solubility of the compounds was determined by suspending excess solid (typically 0.3-0.5 mg) in PBS, pH 7.4, at a concentration of 0.5 mg/mL. The suspension was vortexed for 10-30 seconds to wet the material and stirred at 600 rpm for 24 hours. For analysis by UPLC, 150 μL aliquot sample was transferred into a […] PVDF spin filter and centrifuged at 14,000 rpm for 5 minutes. 100 μL of the filtrate was diluted with 100 μL 1:1 Acetonitrile (ACN):H2O. The resultant samples were analyzed using UPLC and quantified against a standard curve of the compound of interest dissolved in 1:1 ACN:H2O. The retains of the solids were checked by XRPD and PLM to determine if the phase of the material was crystalline or amorphous.

[3] = Human immunodeficiency virus 1, 10% normal human serum, MT4-GFP cells, HIV-1 wild-type (R8), read-out: Viking (10% NHS), IC50
[4] = pH 7.4 phosphate buffered saline, 24 hours, amorphous or crystalline material

| SMILES | IC50 [1, 3] [nM] | solubility at 24 h [2, 4] [µg/mL] | also measured |
| --- | --- | --- | --- |
| C#C[C@]1(CO)O[C@@H](n2ccc3c(N)nc(Cl)nc32)C[C@@H]1OC(=O)OC(CC)CC [Example 84] | 129 | 69 (≈ 163 µM) | – |
| C#C[C@]1(COC(=O)OCCCCCCCCCCCC)O[C@@H](n2ccc3c(N)nc(Cl)nc32)C[C@@H]1O [Example 117] | 4 | < 1 | – |
| C#C[C@]1(COC(=O)Cc2ccc(F)cc2)O[C@@H](n2ccc3c(N)nc(Cl)nc32)C[C@@H]1O [Example 37, ((2R,3S,5R)-5-(4-amino-2-chloro-7H-pyrrolo[2,3-d]pyrimidin-7-yl)-2-ethynyl-3-hydroxytetrahydrofuran-2-yl)methyl 2-(4-fluorophenyl)acetate] | 2.3 | 118 (≈ 265 µM) | – |
| C#C[C@]1(COC(=O)OCC23CC4CC(CC(C4)C2)C3)O[C@@H](n2ccc3c(N)nc(Cl)nc32)C[C@@H]1O [Example 115] | 5.7 | < 1 | – |
| C#C[C@]1(COC(=O)OC(CC)CC)O[C@@H](n2ccc3c(N)nc(Cl)nc32)C[C@@H]1OC(=O)OC(CC)CC [Example 142] | 1760 | < 1 | – |
| C#C[C@]1(COP(=O)(N[C@@H](C)C(=O)OC(C)C)Oc2ccc3ccccc3c2)O[C@@H](n2ccc3c(N)nc(Cl)nc32)C[C@@H]1O (stereo partly drawn) [Example 76] | – | – | IC50 ([1]; 10% normal human serum, MT4-GFP cells, HIV-1 wild-type (R8), read-out: Viking (10% NHS), IC50): 31 nM; Aqu. Solubility [2, 4]: 23 µg/mL |
| C#C[C@]1(COC(=O)OCCCCCC)O[C@@H](n2ccc3c(N)nc(Cl)nc32)C[C@@H]1O [Example 120] | 3.8 | 108 (≈ 247 µM) | – |
| C#C[C@]1(CO)O[C@@H](n2ccc3c(N)nc(Cl)nc32)C[C@@H]1OC(=O)CC1CCCCC1 [Example 177] | 8.5 | < 1 | – |
| C#C[C@]1(COC(=O)Cc2ccc(Br)cc2)O[C@@H](n2ccc3c(N)nc(Cl)nc32)C[C@@H]1OC(=O)Cc1ccc(Br)cc1 [Example 227] | 12 | < 1 | – |
| C#C[C@]1(COC(=O)OCCCCCCCCC)O[C@@H](n2ccc3c(N)nc(Cl)nc32)C[C@@H]1O [Example 126] | 2.6 | 21 (≈ 43.8 µM) | – |
| C#C[C@]1(COC(=O)OCc2ccccc2)O[C@@H](n2ccc3c(N)nc(Cl)nc32)C[C@@H]1OC(=O)CCCCC [Example 210] | 2.9 | < 1 | – |
| C#C[C@]1(CO)O[C@@H](n2ccc3c(N)nc(Cl)nc32)C[C@@H]1OC(=O)OCCCC [Example 82] | 4 | 11 (≈ 26.9 µM) | – |
| C#C[C@]1(CO)O[C@@H](n2ccc3c(N)nc(Cl)nc32)C[C@@H]1OC(=O)OCCCCCCCCC [Example 38, (2R,3S,5R)-5-(4-amino-2-chloro-7H-pyrrolo[2,3-d]pyrimidin-7-yl)-2-ethynyl-2-(hydroxymethyl)tetrahydrofuran-3-yl nonyl carbonate] | 8 | < 1 | – |
| C#C[C@]1(CO)O[C@@H](n2ccc3c(NC(=O)c4ccccc4)nc(Cl)nc32)C[C@@H]1O [Example 19, N-(2-chloro-7-((2R,4S,5R)-5-ethynyl-4-hydroxy-5-(hydroxymethyl)tetrahydrofuran-2-yl)-7H-pyrrolo[2,3-d]pyrimidin-4-yl)benzamide] | 382 | 34 (≈ 82.4 µM) | – |
| C#C[C@]1(COC(=O)CCCCC)O[C@@H](n2ccc3c(N)nc(Cl)nc32)C[C@@H]1OC(C)=O [Example 185] | 17 | 4.2 (≈ 9.36 µM) | – |
| C#C[C@]1(CO)O[C@@H](n2ccc3c(N)nc(Cl)nc32)C[C@@H]1OC(=O)OCCC [Example 80] | 10 | 305 (≈ 773 µM) | – |
| C#C[C@]1(CO)O[C@@H](n2ccc3c(N)nc(Cl)nc32)C[C@@H]1O [Compound A, (2R,3S,5R)-5-(4-amino-2-chloro-7H-pyrrolo[2,3-d]pyrimidin-7-yl)-2-ethynyl-2-(hydroxymethyl)tetrahydrofuran-3-ol, reference compound] | – | – | IC50 ([1]; Human immunodeficiency virus 1, parent compound, read-out: IC50 in the Viking assay): 3.3 nM; solubility ([2]; water, in water): 500 µg/mL (≈ 1620 µM) |

| SMILES | IC50 [1, 3] [nM] | solubility at 24 h [2, 4] [µg/mL] | also measured |
| --- | --- | --- | --- |
| C#C[C@]1(COC(=O)OC(CC)CC)O[C@@H](n2ccc3c(N)nc(Cl)nc32)C[C@@H]1O [Example 86] | 13 | 145 (≈ 343 µM) | – |
| C#C[C@]1(CO)O[C@@H](n2ccc3c(N)nc(Cl)nc32)C[C@@H]1OC(=O)CCCc1ccccc1 [Example 60, (2R,3S,5R)-5-(4-amino-2-chloro-7H-pyrrolo[2,3-d]pyrimidin-7-yl)-2-ethynyl-2-(hydroxymethyl)tetrahydrofuran-3-yl 4-phenylbutanoate] | 3.5 | < 1 | – |
| C#C[C@]1(COC(=O)c2ccccn2)O[C@@H](n2ccc3c(N)nc(Cl)nc32)C[C@@H]1O [Example 50] | 1.6 | 239 (≈ 578 µM) | – |
| C#C[C@]1(CO)O[C@@H](n2ccc3c(N)nc(Cl)nc32)C[C@@H]1OC(=O)CCCCCCC [Example 24, (2R,3S,5R)-5-(4-amino-2-chloro-7H-pyrrolo[2,3-d]pyrimidin-7-yl)-2-ethynyl-2-(hydroxymethyl)tetrahydrofuran-3-yl octanoate] | 1.7 | < 1 | – |
| C#C[C@]1(COC(=O)CCCCCCCCC)O[C@@H](n2ccc3c(N)nc(Cl)nc32)C[C@@H]1OC(=O)CC [Example 47, ((2R,3S,5R)-5-(4-amino-2-chloro-7H-pyrrolo[2,3-d]pyrimidin-7-yl)-2-ethynyl-3-(propionyloxy)tetrahydrofuran-2-yl)methyl decanoate] | 34 | < 1 | – |
| C#C[C@]1(CO)O[C@@H](n2ccc3c(N)nc(Cl)nc32)C[C@@H]1OC(=O)OCc1ccccc1 [Example 27, (2R,3S,5R)-5-(4-amino-2-chloro-7H-pyrrolo[2,3-d]pyrimidin-7-yl)-2-ethynyl-2-(hydroxymethyl)tetrahydrofuran-3-ylbenzyl carbonate] | 3.1 | < 1 | – |
| C#C[C@]1(COC(=O)OCc2ccccc2)O[C@@H](n2ccc3c(N)nc(Cl)nc32)C[C@@H]1OC(=O)OCc1ccccc1 [Example 214] | 4.7 | < 1 | – |
| C#C[C@]1(CO)O[C@@H](n2ccc3c(N)nc(Cl)nc32)C[C@@H]1OC(=O)CCCC[C@@H]1SC[C@@H]2NC(=O)N[C@@H]21 [Example 184] | 57 | 161 (≈ 301 µM) | – |
| C#C[C@]1(COC(=O)CCCCCC)O[C@@H](n2ccc3c(N)nc(Cl)nc32)C[C@@H]1O [Example 119] | 3.5 | 57 (≈ 135 µM) | – |
| C#C[C@]1(COC(=O)OCc2ccccc2)O[C@@H](n2ccc3c(NC(=O)CCc4ccccc4)nc(Cl)nc32)C[C@@H]1OC(=O)OCc1ccccc1 [Example 203] | 47 | – | – |
| C#C[C@]1(CO)O[C@@H](n2ccc3c(N)nc(Cl)nc32)C[C@@H]1OCOC(=O)OC(C)C [Example 141] | 3.5 | – | – |
| C#C[C@]1(COC(=O)OCC23CC(C2)C3)O[C@@H](n2ccc3c(N)nc(Cl)nc32)C[C@@H]1O [Example 168] | 3.9 | – | – |
| C#C[C@]1(CO)O[C@@H](n2ccc3c(N)nc(Cl)nc32)C[C@@H]1OC(=O)OCc1ccn(C)c(=O)c1 [Example 158] | 11 | – | – |
| C#C[C@]1(CO)O[C@@H](n2ccc3c(NC(=O)OCc4ccccc4)nc(Cl)nc32)C[C@@H]1O [Example 72, benzyl (2-chloro-7-((2R,4S,5R)-5-ethynyl-4-hydroxy-5-(hydroxymethyl)tetrahydrofuran-2-yl)-7H-pyrrolo[2,3-d]pyrimidin-4-yl)carbamate] | 544 | – | – |
| C#C[C@]1(COC(=O)O[C@H](C)c2ccccc2)O[C@@H](n2ccc3c(N)nc(Cl)nc32)C[C@@H]1O [Example 125] | 3.7 | – | – |
| C#C[C@]1(COC(=O)OCCC23CC(C2)C3)O[C@@H](n2ccc3c(N)nc(Cl)nc32)C[C@@H]1OC(=O)OCCC12CC(C1)C2 [Example 169] | 13 | – | – |
| C#C[C@]1(COC(=O)OCc2ccc[nH]c2=O)O[C@@H](n2ccc3c(N)nc(Cl)nc32)C[C@@H]1O [Example 209] | 3.9 | – | – |
